Measurements published in patent US20250197442A1, “Peptide Synthesis in Aqueous Solution” (priority 2023, published 2025).

Details: for amount of Tween 80 required to dissolve the Fmoc protected amino acid, relative to its amount: aqueous solution, room temperature; for solubility in aqueous solutions: without the dissolving procedure
Method: A process for dissolving Fmoc-AA in Aqueous Solution was developed and it is summarized as follows (FIG. 9). Firstly, a non-ionic surfactant is dissolved in a small portion of a water-miscible organic solvent, creating Solution A. Secondly, FAA is dissolved in another small portion of a water-miscible organic solvent, creating Solution B. These two solutions, Solution A and Solution B, are thoroughly mixed to create a homogeneous mixture. This mixture is then added vigorously to an aqueous solvent.
To enable the utilization of Fmoc-AA as a building block in an aqueous solution, a specialized procedure has been developed to render Fmoc-AA soluble in aqueous solvents. The present invention devised a method to render Fmoc-AA soluble in water. First, none ionic surfactant is dissolved in a small amount of water-mixable organic solution, creating solution A, and then secondly, a Fmoc-AA is dissolved in a small amount of water-mixable organic solvent to create solution B, Solution A is thoroughly mixed with Solution B. The resulting mixture is then vigorously added to an aqueous solution. Fmoc-AA aqueous solution is obtained (FIG. 9),
4 grams of Tween 80 are added to 2 ml of DMSO to create solution A. and 1 grams of Fmoc-AA are added to 5 ml of DMSO to create solution B, solution A and solution B are mixed thoroughly, and then the resulting mixture is added to 88 ml of water to obtain a 1% concentration of Fmoc-AA in aqueous solution.
• Step 1: Dissolve 1.08 grams of Fmoc-Gly in 6.13 ml of DMSO solvent. Next, add 6.00 milliliters (mL) of a 70% Tween 80 in DMSO solution to the Fmoc-Gly DMSO solution. • Step 2: Pour this mixture into 87 mL of deionized (DI) water.
Dissolve 0.18 grams of Fmoc-Phe in 1.98 DMSO of solvent. Next, add 2.26 milliliters (mL) of a 70% Tween 80 in DMSO solution to Fmoc-Phe solution.
Transfer this mixture into 20.38 mL of deionized water.
Gradually, add 70% T dropwise until the solution becomes clear.
This process yields a solution containing 0.72% Fmoc-Phe in an aqueous solution with 10.80% DMSO.

amount of Tween 80 required to dissolve the Fmoc protected amino acid, relative to its amount	solubility in aqueous solutions	effect of raising the temperature on solubility in aqueous solution (raised temperature)	SMILES
approximately four times	poor solubility	–	O=C(O)CNC(=O)OCC1c2ccccc2-c2ccccc21 [Fmoc-Gly, Fmoc-Glycine]
approximately eight times	poor solubility	significantly increase the solubility	O=C(N[C@@H](Cc1ccccc1)C(=O)O)OCC1c2ccccc2-c2ccccc21 [Fmoc-Phe, Fmoc-Phenylalanine]
